pIC50: −log10 of the molar value.
What was measured:
PDGFRalpha(V561D) = target: T1, PDGFRalpha(V561D) (Homo sapiens, UniProt P16234, V561D); experiment: PDGFRalpha(V561D) assay; type: biochemical; settings: recombinant human PDGFRalpha aa 550-end, 200 μM ATP, 1.4E-06 means 1.4×10^−6, read-out: Inhibition (IC50) of PDGFRα (V561D)
T1 construct: recombinant human PDGFRalpha, amino acids 550end containing the V561 D mutation; 6His (N)
How it was run: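 Radiometric filter-binding assay: substrate phosphorylation by recombinant N-His-tagged human PDGFRα 550-end V561D was quenched with 3% phosphoric acid after 40 min at room temperature, then counted.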

c-Kit(V654A) = target: T2, c-Kit(V654A) (Homo sapiens, UniProt P10721, V654A); experiment: c-Kit(V654A) assay; type: biochemical; settings: recombinant human c-Kit aa 544-end, 200 μM ATP, 1.4E-06 means 1.4×10^−6, read-out: Inhibition (IC50) of c-KIT (V654A)
T2 construct: amino acids 544-end containing the V654A mutation; GST (N)
T2 sequence (P10721 544-976 V654A): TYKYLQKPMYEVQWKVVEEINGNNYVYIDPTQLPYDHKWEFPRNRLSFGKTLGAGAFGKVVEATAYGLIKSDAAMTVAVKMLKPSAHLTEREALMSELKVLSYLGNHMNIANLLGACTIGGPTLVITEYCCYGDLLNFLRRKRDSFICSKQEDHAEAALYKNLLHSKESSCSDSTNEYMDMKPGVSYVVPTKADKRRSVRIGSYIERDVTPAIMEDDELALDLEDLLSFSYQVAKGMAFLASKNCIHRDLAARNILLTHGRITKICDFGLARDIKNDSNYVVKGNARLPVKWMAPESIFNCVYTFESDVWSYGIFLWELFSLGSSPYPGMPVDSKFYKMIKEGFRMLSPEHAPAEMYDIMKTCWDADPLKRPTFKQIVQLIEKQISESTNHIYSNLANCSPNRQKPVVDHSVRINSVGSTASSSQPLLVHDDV
How it was run: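 Radiometric filter-binding read-out: substrate 33P incorporation counted by scintillation after P30 filtermat washes in 75 mM phosphoric acid and methanol. Enzyme: N-GST recombinant human c-Kit aa 544-end carrying V654A.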

T1 sequence (P16234 550-1089 V561D): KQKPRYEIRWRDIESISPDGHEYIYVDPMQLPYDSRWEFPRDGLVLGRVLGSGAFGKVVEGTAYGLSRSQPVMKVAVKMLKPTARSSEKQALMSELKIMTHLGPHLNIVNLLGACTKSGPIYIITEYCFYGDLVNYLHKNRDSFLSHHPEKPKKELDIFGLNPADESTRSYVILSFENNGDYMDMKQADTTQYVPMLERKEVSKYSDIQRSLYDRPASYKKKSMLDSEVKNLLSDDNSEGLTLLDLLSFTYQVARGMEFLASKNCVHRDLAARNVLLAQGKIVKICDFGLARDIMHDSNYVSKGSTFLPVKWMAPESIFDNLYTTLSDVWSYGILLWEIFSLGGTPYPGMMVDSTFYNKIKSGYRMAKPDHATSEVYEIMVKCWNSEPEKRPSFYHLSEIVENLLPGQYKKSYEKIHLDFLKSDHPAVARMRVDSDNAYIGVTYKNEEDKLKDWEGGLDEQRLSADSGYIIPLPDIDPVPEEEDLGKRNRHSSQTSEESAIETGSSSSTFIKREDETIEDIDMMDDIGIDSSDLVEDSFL

SMILES	pIC50 (PDGFRalpha(V561D))	pIC50 (c-Kit(V654A))
COC[C@@H]1CCCN1C(=O)c1ccc(-n2cc(-c3cc4cc(Cl)ccc4[nH]c3=O)nn2)cc1 [A253, 6-chloro-3-{1-[4-((S)-2-methoxymethyl-pyrrolidine-1-carbonyl)-phenyl]-1H-[1,2,3]triazol-4-yl}-1H-quinolin-2-one]	7.68	7.36
CN(C)C1CCN(C(=O)c2ccc(-n3cc(-c4cc5cc(Cl)ccc5[nH]c4=O)nn3)cc2)C1 (stereo not shown) [A254, 6-chloro-3-{1-[4-(3-dimethylamino-pyrrolidine-1-carbonyl)-phenyl]-1H-[1,2,3]triazol-4-yl}-1H-quinolin-2-one]	7.62	7.24
O=C(c1ccc(-n2cc(-c3cc4cc(Cl)ccc4[nH]c3=O)nn2)cc1)N1CCCCC1CO (stereo not shown) [A255, 6-chloro-3-{1-[4-(2-hydroxymethyl-piperidine-1-carbonyl)-phenyl]-1H-[1,2,3]triazol-4-yl}-1H-quinolin-2-one]	8.59	7.66
O=C(c1ccc(-n2cc(-c3cc4cc(Cl)ccc4[nH]c3=O)nn2)cc1)N1CCC2(CC1)COC2 [A256, 6-chloro-3-{1-[4-(2-oxa-7-aza-spiro[3.5]nonane-7-carbonyl)-phenyl]-1H-[1,2,3]triazol-4-yl}-1H-quinolin-2-one]	8.37	7.57
O=C(c1ccc(-n2cc(-c3cc4cc(Cl)ccc4[nH]c3=O)nn2)cc1)N1CCC2(COC2)C1 [A257, 6-chloro-3-{1-[4-(2-oxa-6-aza-spiro[3.4]octane-6-carbonyl)-phenyl]-1H-[1,2,3]triazol-4-yl}-1H-quinolin-2-one]	8.43	7.57
O=C(c1ccc(-n2cc(-c3cc4cc(Cl)ccc4[nH]c3=O)nn2)cc1)N1CC2(COC2)C1 [A258, 6-chloro-3-{1-[4-(2-oxa-6-aza-spiro[3.3]heptane-6-carbonyl)-phenyl]-1H-[1,2,3]triazol-4-yl}-1H-quinolin-2-one]	7.07	7.33
COCCO[C@H]1CCN(C(=O)c2ccc(-n3cc(-c4cc5cc(Cl)ccc5[nH]c4=O)nn3)cc2)C1 [A259, 6-chloro-3-(1-{4-[(S)-3-(2-methoxy-ethoxy)-pyrrolidine-1-carbonyl]-phenyl}-1H-[1,2,3]triazol-4-yl)-1H-quinolin-2-one]	8.08	7.24
COCCO[C@@H]1CCN(C(=O)c2ccc(-n3cc(-c4cc5cc(Cl)ccc5[nH]c4=O)nn3)cc2)C1 [A260, 6-chloro-3-(1-{4-[(R)-3-(2-methoxy-ethoxy)-pyrrolidine-1-carbonyl]-phenyl}-1H-[1,2,3]triazol-4-yl)-1H-quinolin-2-one]	7.00	7.29
COCCO[C@@H]1CCN(C(=O)c2ccc(-n3cc(-c4cc5cc(F)ccc5[nH]c4=O)cn3)cc2)C1 [A261, 6-fluoro-3-(1-{4-[(R)-3-(2-methoxy-ethoxy)-pyrrolidine-1-carbonyl]-phenyl}-1H-pyrazol-4-yl)-1H-quinolin-2-one]	7.43	7.36
NC(=O)[C@H]1CCCN1C(=O)c1ccc(-n2cc(-c3cc4cc(F)ccc4[nH]c3=O)nn2)cc1 [A262, (R)-1-{4-[4-(6-fluoro-2-oxo-1,2-dihydro-quinolin-3-yl)-[1,2,3]triazol-1-yl]-benzoyl}-pyrrolidine-2-carboxylic acid amide]	6.96	7.03
CO[C@@H]1CN(C(=O)c2ccc(-n3cc(-c4cc5cc(F)ccc5[nH]c4=O)nn3)cc2)C[C@H]1OC [A263, 3-{1-[4-((3R,4R)-3,4-dimethoxy-pyrrolidine-1-carbonyl)-phenyl]-1H-[1,2,3]triazol-4-yl}-6-fluoro-1H-quinolin-2-one]	9.04	7.03
CO[C@H]1CN(C(=O)c2ccc(-n3cc(-c4cc5cc(F)ccc5[nH]c4=O)nn3)cc2)C[C@@H]1OC [A264, 3-{1-[4-((3S,4S)-3,4-dimethoxy-pyrrolidine-1-carbonyl)-phenyl]-1H-[1,2,3]triazol-4-yl}-6-fluoro-1H-quinolin-2-one]	8.92	7.12
O=C(c1ccc(-n2cc(-c3cc4cc(F)ccc4[nH]c3=O)nn2)cc1)N1CC[C@H](F)C1 [A265, 6-fluoro-3-{1-[4-((S)-3-fluoro-pyrrolidine-1-carbonyl)-phenyl]-1H-[1,2,3]triazol-4-yl}-1H-quinolin-2-one]	8.80	7.31
O=C(c1ccc(-n2cc(-c3cc4cc(Cl)ccc4[nH]c3=O)nn2)cc1)N1CC[C@H](F)C1 [A266, 6-chloro-3-{1-[4-((S)-3-fluoro-pyrrolidine-1-carbonyl)-phenyl]-1H-[1,2,3]triazol-4-yl}-1H-quinolin-2-one]	8.96	7.40
O=C(c1ccc(-n2cc(-c3cc4cc(F)ccc4[nH]c3=O)nn2)cc1)N1CCC(F)(F)C1 [A267, 3-{1-[4-(3,3-difluoro-pyrrolidine-1-carbonyl)-phenyl]-1H-[1,2,3]triazol-4-yl}-6-fluoro-1H-quinolin-2-one]	8.85	7.77
O=C(c1ccc(-n2cc(-c3cc4cc(Cl)ccc4[nH]c3=O)nn2)cc1)N1CCC(F)(F)C1 [A268, 6-chloro-3-{1-[4-(3,3-difluoro-pyrrolidine-1-carbonyl)-phenyl]-1H-[1,2,3]triazol-4-yl}-1H-quinolin-2-one]	9.17	7.80
O=C(c1ccc(-n2cc(-c3cc4cc(F)ccc4[nH]c3=O)nn2)cc1)N1CC[C@@H](F)C1 [A269, 6-fluoro-3-{1-[4-((R)-3-fluoro-pyrrolidine-1-carbonyl)-phenyl]-1H-[1,2,3]triazol-4-yl}-1H-quinolin-2-one]	8.82	7.51
O=C(c1ccc(-n2cc(-c3cc4cc(Cl)ccc4[nH]c3=O)nn2)cc1)N1CC[C@@H](F)C1 [A270, 6-chloro-3-{1-[4-((R)-3-fluoro-pyrrolidine-1-carbonyl)-phenyl]-1H-[1,2,3]triazol-4-yl}-1H-quinolin-2-one]	9.70	7.59
CO[C@@H]1CN(C(=O)c2ccc(-n3cc(-c4cc5cc(Cl)ccc5[nH]c4=O)nn3)cc2)C[C@H]1OC [A271, 6-chloro-3-{1-[4-((3R,4R)-3,4-dimethoxy-pyrrolidine-1-carbonyl)-phenyl]-1H-[1,2,3]triazol-4-yl}-1H-quinolin-2-one]	9.29	7.30
CO[C@H]1CN(C(=O)c2ccc(-n3cc(-c4cc5cc(Cl)ccc5[nH]c4=O)nn3)cc2)C[C@@H]1OC [A272, 6-chloro-3-{1-[4-((3S,4S)-3,4-dimethoxy-pyrrolidine-1-carbonyl)-phenyl]-1H-[1,2,3]triazol-4-yl}-1H-quinolin-2-one]	9.05	7.32
O=C(c1ccc(-n2cc(-c3cc4cc(F)ccc4[nH]c3=O)nn2)cc1)N1CCCC1 [A273, 6-fluoro-3-{1-[4-(pyrrolidine-1-carbonyl)-phenyl]-1H-[1,2,3]triazol-4-yl}-1H-quinolin-2-one]	8.39	7.40
O=C(c1ccc(-n2cc(-c3cc4cc(F)ccc4[nH]c3=O)nn2)cc1)N1C[C@@H](O)CO1 [A274, 6-fluoro-3-{1-[4-((R)-4-hydroxy-isoxazolidine-2-carbonyl)-phenyl]-1H-[1,2,3]triazol-4-yl}-1H-quinolin-2-one]	8.48	7.21
O=C(c1ccc(-n2cc(-c3cc4cc(Cl)ccc4[nH]c3=O)nn2)cc1)N1C[C@@H](O)CO1 [A275, 6-chloro-3-{1-[4-((R)-4-hydroxy-isoxazolidine-2-carbonyl)-phenyl]-1H-[1,2,3]triazol-4-yl}-1H-quinolin-2-one]	9.68	7.35

Reference: patent US11939314B2, “Quinolin-2-one derivatives” (MERCK PATENT GMBH, priority 2016, dated 2024)
